# Tests used:
# [1] = test system: Immortalized Human Gingival Fibroblasts-hTERT (iHGF); experiment: Total collagen deposition (Sirius red staining) after UVA irradiation; assay type: cell-based; details: 7 days after irradiation and treatment
# Experimental: Collagen deposition was determined according to Walsh et al 1992. […] Collagen was stained with Sirius red F3BA 0.1% in saturated picric acid for 1 hour. Unbound dye was removed by washing with 10 mM HCl, and dye was solubilized with 100 mM NaOH. Absorbance was measured with a microplate reader at 540 nm. Non-treated cells were set as 100%.
# [2] = test system: Immortalized Human Gingival Fibroblasts-hTERT (iHGF); experiment: Metabolic activity (PrestoBlue cell viability) after UVA irradiation; details: 24 h after irradiation and after 7 days of culture and treatment
# Experimental: Immortalized Human Gingival Fibroblasts-hTERT (iHGF) (Applied Biological Materials Inc) were used for the experiments. Cells were grown at 37 °C in an atmosphere of 5% CO2 using complete fibroblast cell culture medium that consists in Dulbecco's modified Eagle's medium (DMEM) low glucose (Biowest)/Ham's F12 (3/1) (Biowest), supplemented with 10% (v/v) fetal bovine serum embryonic stem cells tested (FBS) (Biowest), 100 g/mL penicillin and 100 g/mL streptomycin (Biowest).
# iHGF were seeded (7 000 cells/well) in 96-well plates (white and transparent tissue culture test-plates) and at confluence, cells were treated with different concentrations (0.1; 1; 10; 50; 75 and 100 µM) of Pteroyouth®, pterostilbene or silybin in complete fibroblast cell culture medium as described above. […] To measure cell viability, cell culture media and treatments were added again to the cells and metabolic activity was measured 24 h after irradiation. […] Cell viability was determined again at day 7, and cell monolayer was used to quantify collagen deposition. […]
# Total metabolic activity was evaluated using the PrestoBlue™ Cell Viability Reagent (Invitrogen, Catalog Number A13261; Life Technologies, Carlsbad, CA, USA), which is used to measure the metabolic activity of cells, being an indicator of their overall health and functionality. […]
SMILES,total collagen deposition compared to both C and CuVA ([1]; 1 µM),metabolic activity (cell viability) ([2]; 0.1 µM),metabolic activity (cell viability) ([2]; 1 µM),total collagen deposition compared to both C and CuVA ([1]; 0.1 µM),total collagen deposition compared to both C and CuVA ([1]; 10 µM)
"COc1cc(/C=C/c2ccc(O)cc2)cc(OC)c1 [pterostilbene, trans-3,5-dimethoxy-4-hydroxystilbene]",higher collagen deposition,maintain cell viability,maintain cell viability,,
COc1cc(C2Oc3cc([C@H]4Oc5cc(O)cc(O)c5C(=O)[C@@H]4O)ccc3OC2CO)ccc1O (stereo partly drawn) [silybin],higher collagen deposition,,,higher collagen deposition,higher collagen deposition
